Measurements published in patent US20130216579A1, “METHODS AND COMPOSTITIONS FOR GENE EDITING OF A PATHOGEN” (priority 2012, published 2013).

Tests used:
[1] = test system: CQS strain 106/1; assay: CQ exposure of non-transfected 106/1 cultures; format: cell-based, P. falciparum; settings: 33 nM CQ, six independent non-transfected 106/1 cultures
[2] = test system: GC03^crt-Dd2 G9 and GC03^crt-Dd2 H6 parasite clones; assay: In vitro CQ IC50 of pfcrt allelic replacement clones vs GC03 parent; format: cell-based, P. falciparum
Protocol: To quantify the efficiency of pfcrt allelic replacement, clones were generated by limiting dilution and analyzed by PCR. We observed replacement events in 13/82 (15.9%) 106/1 clones and 4/83 (4.8%) GC03 clones (FIG. 3B).
(§1) We also confirmed the CQ resistance phenotype of two gene-edited lines, 106/1^13/15mut2 and 106/1^14/15mut1 (FIG. 4A). […] Parasitemia was determined by flow cytometry after a 72 h incubation with drug. Parasites were stained with 1.6 μM Mito Tracker® (Molecular probes, Invitrogen) and 2×Sybr® Green (Molecular probes, Invitrogen) in 1×PBS supplemented with 5% FBS as described. In vitro IC50 values were calculated by non-linear regression analysis and Mann-Whitney U tests were employed for statistical analysis.

[3] = test system: 106/1^13/15mut2 and 106/1^14/15mut1 parasite lines; assay: In vitro CQ IC50 of gene-edited 106/1 lines, parasitemia by flow cytometry after 72 h; format: cell-based, P. falciparum; settings: lines 106/1^13/15mut2 and 106/1^14/15mut1, 72 h
Protocol: as §1

[4] = test system: ZFN 30413 (synthetic construct); assay: cell_activity; settings: pair with 30415; K76I conversion 29/29 and 25/25 in 106/1 with CQ selection; 2/36 clones in Dd2 without selection
[5] = test system: ZFN 30414 (synthetic construct); assay: cell_activity; settings: pair with 30415; K76I conversion 38/38, 28/28 and 31/31 in 106/1 with CQ selection; 10/40 clones in Dd2 without selection

## CCN(CC)CCCC(C)Nc1ccnc2cc(Cl)ccc12 (centres unmarked) [CQ, chloroquine]
[1]
  parasite outcome under CQ exposure: yielded no parasites after 90 days
[2]
  shift in CQ IC50 values compared to the GC03 parent: 4- to 5 fold
[3]
  shift in CQ IC50 values relative to the unmodified 106/1 parent line: 5-6 fold

## CTGTTAAGGTCGACAAGGGAAAAAAAAA (double strand) [pfcrt 30413 target site]
[4]
  activity: 100%

## CTGTTAAGGTCGACAAGGGAAAAAAAAA (double strand) [pfcrt 30414 target site]
[5]
  activity: 100%
